Data from patent US20030194750A1, “Methods for treatment of diseases where GSK 3-beta is desired, and methods to identify compounds usefule for that” (priority 2002, published 2003).
pIC50: −log10 of the molar value. Counter-ions that a name gives are not always drawn.

Experiments:
[1] = tested on: rats; test: Long-term (91-day) safety assessment study in rats; type: in vivo, rat
From the text: These changes were not associated with any gross clinical abnormality.

[2] = target: PDE 5 (Homo sapiens, UniProt O76074); test: Competitive (with cGMP) binding to PDE5
[3] = tested on: PDE4; test: PDE inhibition, similar protocols; type: biochemical
[4] = tested on: human patients; test: Single, escalating dose human clinical safety study; type: in vivo; settings: oral, 50 mg BID, 100 mg BID, 200 mg BID and 400 mg BID
[5] = tested on: dogs; test: Acute and seven-dose toxicity in dogs; settings: dog, in vivo
Method: Therefore, these dogs were subsequently administered seven consecutive doses of 1000 mg/kg/day.

[6] = tested on: dogs; test: 91-day oral study in dogs; type: in vivo, dog
[7] = tested on: rats; test: Seven-day dose-range finding study in rats; type: in vivo, rat; settings: 7 days
[8] = tested on: rats; test: 28-day study in rats; type: in vivo, rat
Method: A 28-day study in rats was also carried out at 0, 50, 500 and 2000 mg/kg/day.

[9] = tested on: rats; test: Acute toxicity study in rats; settings: rat, in vivo
[10] = target: T1, GST-cGB-PDE5 fusion protein (Homo sapiens, UniProt O76074); test: cGMP binding assay with GST-cGB-PDE5 fusion protein; settings: 3H-cGMP 2 μM, 22° C., 1 hour
T1 construct: made in house; host or cells: E. coli BL21 (DE3)
Method: 5′-3′, Inc. kits for total RNA followed by oligo (dT) column purification of mRNA are used with HT-29 cells. […] It is then cloned into pGEX-5X-3 glutathione-S-transferase (GST) fusion vector (Pharmacia Biotech) with tac promoter, and EcoRI and XhoI cut sites. The fusion vector is then transfected into E. Coli BL21 (DE3) bacteria (Invitrogen). The transfected BL21 bacteria is grown to log phase, and then IPTG is added as an inducer. The induction is carried at 20° C. for 24 hrs. The bacteria are harvested and lysed. The soluble cell lysate is incubated with GSH conjugated Sepharose 4B (GSH-Sepharose 4B). The GST-cGB-PDE5 fusion protein can bind to the GSH-Sepharose beads, and the other proteins are washed off from beads with excessive cold PBS.
Then, the mixture is transferred to Brandel MB-24 cell harvester with GF/B as the filter membrane followed by 2 washes with 10 mL of cold 5 mM potassium buffer( pH 6.8). The membranes are then cut out and transferred to scintillation vials followed by the addition of 1 mL of H2O and 6 mL of Ready Safe™ liquid scintillation cocktail to each vial. The vials are counted on a Beckman LS 6500 scintillation counter.
The quenching by filter membrane or other debris are also calibrated.

[11] = tested on: GSK3β; test: Western blot of GSK3β-phospho-ser9 in SW480 cells; type: cell-based, human; settings: various concentrations, 48 hours, vs 0 concentration
Method: (§1) 50 μg protein/lane were analyzed by Western blot analysis using specific anti-PKG1β and anti-GSK3β-phospho-ser9 antibodies.

[12] = tested on: PKG1β; test: Western blot of PKG1β in SW480 cells; type: cell-based, human; settings: various concentrations, 48 hours
Method: as §1

[13] = tested on: PDE1; test: PDE inhibition, similar protocols; type: biochemical
[14] = 91 days, highest dose group (300 mg/kg/day)
[15] = 28 days, 50, 500 and 2000 mg/kg/day

`CC1=C(CC(=O)NCc2ccccc2)c2cc(F)ccc2/C1=C\c1ccncc1` [Example 38, (Z)-5-Fluoro-2-Methyl-(4-Pyridylidene)-3-(N-Benzyl) Indenylacetamide Hydrochloride] was tested, and the “clinical biochemistry and hematology” value ([1]; 91 days) was “no changes in clinical biochemistry and hematology were evident”, the thyroid microscopy ([1]; 91 days, 500 mg/kg/day) was “follicular cell hypertrophy” and the kidney microscopy ([1]; 91 days, 200 and 500 mg/kg/day) was “increase in accumulation of hyalin droplets in the kidneys”. For the same compound, the liver microscopy ([1]; 91 days, 200 and 500 mg/kg/day) was “slight hepatocellular hypertrophy”, the “liver and thyroid/parathyroid weights” value ([1]; 91 days, males and females at 200 and 500 mg/kg/day) was “dose-related trend to increased liver and thyroid/parathyroid weights” and the toxicological effects overall ([1]; oral, 91 consecutive days, 50, 200 and 500 mg/kg/day) was “did not produce any major toxicological effects”. For the same compound, the “competitive binding with cGMP to PDE5” value [2] was “does competitively (with cGMP) bind to PDE 5”, the pIC50 [3] was 5.22 and the side effects [4] was “no significant side effects at any dose”. For the same compound, the signs of toxicity ([5]; 1000 mg/kg) was “no signs of toxicity”, the “signs of drug-related effects” value ([5]; 1000 mg/kg/day) was “At no time in either dosing phase were any obvious signs of drug-related effects observed” and the “route of elimination (suggested by feces colour)” value ([6]; 91 days oral) was “most of Compound 38 was being eliminated via the feces”. The feces observation ([6]; 91 days, 150 and 300 mg/kg/day) was “Orange discoloration of the feces”, the liver microscopy ([6]; 91 days, highest dose group) was “no microscopic alterations” and the body weights [6, 14] was “Slightly lowered body weights”. For the same compound, the liver weights [6, 14] was “increased liver weights”, the toxicological effects overall ([6]; oral, 91 consecutive days, 50, 150 and 300 mg/kg/day) was “no toxicological effects” and the signs of toxicity ([7]; 50 mg/kg/day) was “no observable signs of toxicity”. The treatment-related effects ([7]; 500 mg/kg/day) was “an increase in absolute and relative liver weights in female rats”, the treatment-related effects ([7]; 2000 mg/kg/day) was “labored breathing and/or abnormal respiratory sounds, decreased weights gains and food consumption in male rats, and increased liver weights in female rats” and the “hematology, blood chemistry, microscopic pathology” value ([7]; any dose level (50, 500, 2000 mg/kg/day)) was “No hematological or blood chemistry changes nor any microscopic pathology changes”. For the same compound, the “macroscopic tissue changes at necropsy” value ([8]; 28 days) was “No macroscopic tissue changes”, the “histopathological evaluation of tissues” value ([8]; 28 days, 500 mg/kg/day) was “one female at 500 mg/kg/day had increased mitotic figures in the thyroid gland” and the liver weights ([8]; 28 days, 2000 mg/kg/day) was “statistically significant increase in liver weights”. The thyroid weights ([8]; 28 days, 2000 mg/kg/day) was “statistically significant increases in thyroid weights”, the “body weight changes, ophthalmoscopic examinations, hematological and blood chemistry values, urinalysis” value [8, 15] was “unremarkable” and the clinical observations [8, 15] was “no abnormal clinical observations”. For the same compound, the “liver and thyroid weight increases at the lower doses” value ([8]; 28 days, 50 and 500 mg/kg/day) was “not statistically significant”, the “histopathological evaluation of tissues” value ([8]; 28 days, generally limited to a small number of animals at 2000 mg/kg/day) was “traces of follicular cell hypertrophy, increased numbers of mitotic figures (suggestive of possible cell proliferation) in the thyroid gland and mild centrilobular hypertrophy in the liver” and the body weight gain ([9]; ip, 1000 mg/kg) was “reduced body weight gain”. The necropsy findings ([9]; ip, 1000 mg/kg) was “mesenteric adhesions seen in some animals”, the body weight gains ([9]; po, 2000 mg/kg) was “slightly reduced” and the “competition with cGMP for the cGMP binding sites” value [10] was “does not bind to the cGMP-binding site of PDE5”. For the same compound, the “GSK3β inactivation by Ser9 phosphorylation” value [11] was “inactivated in vivo by phosphorylation of its Ser9”, the PKG1 induction [12] was “PKG1 induction in a dose-dependent manner” and the pIC50 [13] was 5.52.
